Results reported in patent US11384078B2, “5,6-fused-bicyclic compounds and compositions for the treatment of parasitic diseases” (NOVARTIS AG, priority 2017, dated 2022).

Legend:
Assay type in all cases: cell-based
[1] = test system: Trypanosoma brucei brucei (Lister 427) strain; test: Assay for growth inhibition against Trypanosoma brucei brucei (Cell TiterGlo ATP luminescence); conditions: Trypanosoma brucei, T. brucei brucei (Lister 427); read-out: T. Brucei (HAT) EC50
In short: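 T. b. brucei Lister 427 grown in HMI-9 with 10% FBS and 10% serum plus, seeded at 10,000 parasites/mL with 10-point threefold compound dilutions in duplicate, 37 °C for 2 days. Viability read as ATP luminescence 30 min after Cell TiterGlo; IC50 versus untreated controls.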

[2] = test system: Trypanosoma cruzi amastigotes cultured in 3T3 fibroblast cells; test: Assay for growth inhibition of kinetoplastid parasite Trypanosoma cruzi (beta-galactosidase Tulahuen strain, CPRG readout); conditions: Trypanosoma cruzi, Fibroblast, T. cruzi amastigotes in 3T3 fibroblast cells; read-out: Buckner infectious T. cruzi EC50
In short: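 3T3 fibroblasts (1,000 cells/well) plated overnight, treated with compound in DMSO, then infected with 10,000 Lac-Z-expressing Tulahuen trypomastigotes. After 6 days, 0.6 mM CPRG with 0.6% NP-40 added for 2 h at room temperature; absorbance gives relative intracellular amastigote numbers. Benznidazole and nifurtimox serve as positive controls.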

[3] = test system: Leishmania donovani axenic amastigote; test: In vitro assay for growth inhibition of Leishmania donovani axenic amastigote (Cell TiterGlo luminescence); conditions: Leishmania donovani, L. donovani axenic amastigotes in vitro; read-out: L. donovani amastigotes EC50
In short: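 Axenic L. donovani amastigotes (9600/well) grown at 37 °C, 5% CO2 in supplemented RPMI 1640, pH 5.5, with compound added from DMSO. After two days, viability read by CellTiter-Glo luminescence against DMSO and control-compound wells.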

[4] = test system: L. donovani HU3 strain in mouse peritoneal macrophages; test: Assay for inhibition of parasitemia of Leishmania donovani in mouse macrophages (SYBR Green nuclei count, high-content imaging); conditions: Leishmania donovani, Peritoneal macrophage, L. donovani in mouse peritoneal macrophages; read-out: L. donovani in Mouse Macrophages EC50
In short: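 Peritoneal macrophages from uninfected BALB/c mice were infected for 24 h with spleen-derived L. donovani HU3 (4×10^5 parasites per 2×10^4 macrophages), then cultured with compound for 5 days at 37° C, 5% CO2. After fixation and permeabilization, parasite nuclei were stained with SYBR Green and counted by high-content imaging.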

SMILES | EC50 [1] [nM] | EC50 [2] [nM] | EC50 [3] [nM] | EC50 [4] [nM]
Cc1nc(C)c(C(=O)Nc2ccc(F)c(-n3cc4cc(N(C)C)cnc4n3)c2)o1 [Compound 154, N-{3-[5-(dimethylamino)-2H-pyrazolo[3,4-b]pyridin-2-yl]-4-fluorophenyl}-2,4-dimethyl-1,3-oxazole-5-carboxamide] | 37 | 23 | 53 | 78
Cc1nc(C)c(C(=O)Nc2ccc(F)c(-n3cc4cc(N5CCC5)cnc4n3)c2)o1 [Compound 155, N-{3-[5-(azetidin-1-yl)-2H-pyrazolo[3,4-b]pyridin-2-yl]-4-fluorophenyl}-2,4-dimethyl-1,3-oxazole-5-carboxamide] | < 23 | 18 | 53 | 22
Cc1nc(C)c(C(=O)Nc2ccc(F)c(-n3cc4cc(N5CCCC5)cnc4n3)c2)o1 [Compound 157, N-{4-fluoro-3-[5-(pyrrolidin-1-yl)-2H-pyrazolo[3,4-b]pyridin-2-yl]phenyl}-2,4-dimethyl-1,3-oxazole-5-carboxamide] | < 23 | 13 | 25 | 18
Cc1nc(C)c(C(=O)Nc2ccc(F)c(-n3cc4cc(N5CCOCC5)cnc4n3)c2)o1 [Compound 158, N-{4-fluoro-3-[5-(morpholin-4-yl)-2H-pyrazolo[3,4-b]pyridin-2-yl]phenyl}-2,4-dimethyl-1,3-oxazole-5-carboxamide] | < 23 | 15 | 16 | 16
Cc1nc(C)c(C(=O)Nc2ccc(F)c(-n3cc4cc(NC(=O)OC(C)C)cnc4n3)c2)o1 [Compound 159, propan-2-yl N-{2-[5-(dimethyl-1,3-oxazole-5-amido)-2-fluorophenyl}-2H-pyrazolo[3,4-b]pyridin-5-yl}carbamate] | < 23 | 37 | 13 | 17
O=C(Nc1ccc(F)c(-n2cc3cc(C4CCOCC4)cnc3n2)c1)N1CCC1 [Compound 160, N-{4-fluoro-3-[5-(oxan-4-yl)-2H-pyrazolo[3,4-b]pyridin-2-yl]phenyl}azetidine-1-carboxamide] | < 23 | 5.1 | 4.3 | 9.8
O=C(Nc1ccc(F)c(-n2cc3cc(N4CCCC4)cnc3n2)c1)N1CC(F)(F)C1 [Compound 161, 3,3-difluoro-N-{4-fluoro-3-[5-(pyrrolidin-1-yl)-2H-pyrazolo[3,4-b]pyridin-2-yl]phenyl}azetidine-1-carboxamide] | < 23 | 9.8 | 7.7 | 7.3
O=C(Nc1ccc(F)c(-n2cc3cc(CC(F)(F)F)cnc3n2)c1)N1CC[C@@H](F)C1 [Compound 162, (3R)-3-fluoro-N-{4-fluoro-3-[5-(2,2,2-trifluoroethyl)-2H-pyrazolo[3,4-b]pyridin-2-yl]phenyl}pyrrolidine-1-carboxamide] | < 23 | 1.8 | 7 | 4.5
O=C(Nc1ccc(F)c(-n2cc3cc(N4CCCC4)cnc3n2)c1)N1CCC1 [Compound 163, N-{4-fluoro-3-[5-(pyrrolidin-1-yl)-2H-pyrazolo[3,4-b]pyridin-2-yl]phenyl}azetidine-1-carboxamide] | < 23 | 2.7 | 5.8 | 4.1
O=C(Nc1ccc(F)c(-n2cc3cc(CC(F)(F)F)cnc3n2)c1)N1CCC1 [Compound 164, N-{4-fluoro-3-[5-(2,2,2-trifluoroethyl)-2H-pyrazolo[3,4-b]pyridin-2-yl]phenyl}azetidine-1-carboxamide] | < 23 | 1.7 | 6 | 10
O=C(Nc1ccc(F)c(-n2cc3cc(C4CCOCC4)cnc3n2)c1)N1CC(F)(F)C1 [Compound 165, 3,3-difluoro-N-{4-fluoro-3-[5-(oxan-4-yl)-2H-pyrazolo[3,4-b]pyridin-2-yl]phenyl}azetidine-1-carboxamide] | < 23 | 40 | 10 | 10
O=C(Nc1ccc(F)c(-n2cc3cc(CC(F)(F)F)cnc3n2)c1)N1CC(F)(F)C1 [Compound 166, 3,3-difluoro-N-{4-fluoro-3-[5-(2,2,2-trifluoroethyl)-2H-pyrazolo[3,4-b]pyridin-2-yl]phenyl}azetidine-1-carboxamide] | < 23 | 1.7 | 2.5 | 3.7
CN(C)c1cnc2nn(-c3cc(NC(=O)N4CC(F)C4)ccc3F)cc2c1 [Compound 167, N-{3-[5-(dimethylamino)-2H-pyrazolo[3,4-b]pyridin-2-yl]-4-fluorophenyl}-3-fluoroazetidine-1-carboxamide] | < 23 | 2.2 | 2.9 | 8.2
CC(C)OC(=O)Nc1cnc2nn(-c3cc(NC(=O)N4CC(F)C4)ccc3F)cc2c1 [Compound 168, Isopropyl (2-(2-fluoro-5-(3-fluoroazetidine-1-carboxamido)phenyl)-2H-pyrazolo[3,4-b]pyridin-5-yl)carbamate] | < 23 | 27 | 3.2 | 8.2
Cc1nc(C)c(C(=O)Nc2ccc(F)c(-n3cc4cc(C5CCOCC5)cnc4n3)c2)o1 [Compound 169, N-{4-fluoro-3-[5-(oxan-4-yl)-2H-pyrazolo[3,4-b]pyridin-2-yl]phenyl}-2,4-dimethyl-1,3-oxazole-5-carboxamide] | < 23 | 14 | 10 | 30
CN(C)c1cnc2nn(-c3cc(NC(=O)N4CCC4)ccc3F)cc2c1 [Compound 170, N-{3-[5-(dimethylamino)-2H-pyrazolo[3,4-b]pyridin-2-yl]-4-fluorophenyl}azetidine-1-carboxamide] | < 23 | 4.6 | 8 | 11
O=C(Nc1ccc(F)c(-n2cc3cc(N4CC5(COC5)C4)cnc3n2)c1)N1CC(F)C1 [Compound 171, 3-fluoro-N-[4-fluoro-3-(5-{2-oxa-6-azaspiro[3.3]heptan-6-yl}-2H-pyrazolo[3,4-b]pyridin-2-yl)phenyl}azetidine-1-carboxamide] | < 23 | 47 | 9.5 | 16
O=C(Nc1ccc(F)c(-n2cc3cc(N4C[C@@H]5C[C@H]4CO5)cnc3n2)c1)N1CC(F)C1 [Compound 172, 3-fluoro-N-(4-fluoro-3-{5-[(1S,4S)-2-oxa-5-azabicyclo[2.2.1]heptan-5-yl]-2H-pyrazolo[3,4-b]pyridin-2-yl]phenyl)azetidine-1-carboxamide] | < 23 | 33 | 6.7 | 11
CC(C)c1cnc2nn(-c3cc(NC(=O)CCC(F)(F)F)ccc3F)cc2c1 [Compound 173, 4,4,4-trifluoro-N-(4-fluoro-3-(5-isopropyl-2H-pyrazolo[3,4-b]pyridin-2-yl)phenyl)butanamide] | 120 | 140 | 410 | 500
CC(C)c1cnc2nn(-c3cc(NC(=O)OCCC(F)(F)F)ccc3F)cc2c1 [Compound 174, 3,3,3-trifluoropropyl N-{4-fluoro-3-[5-(propan-2-yl)-2H-pyrazolo[3,4-b]pyridin-2-yl]phenyl}carbamate] | 1000 | 720 | 2000 | 2700
Cc1nc(C)c(C(=O)Nc2ccc(F)c(-n3cc4cc(CC(F)(F)F)cnc4n3)c2)o1 [Compound 175, N-{4-fluoro-3-[5-(2,2,2-trifluoroethyl)-2H-pyrazolo[3,4-b]pyridin-2-yl]phenyl}-2,4-dimethyl-1,3-oxazole-5-carboxamide] | < 23 | 4.9 | 24 | 8.1
CC(C)c1cnc2nn(-c3cc(NC(=O)N4CC[C@@H](F)C4)ccc3F)cc2c1 [Compound 195, (3R)-3-fluoro-N-{4-fluoro-3-[5-(propan-2-yl)-2H-pyrazolo[3,4-b]pyridin-2-yl]phenyl}pyrrolidine-1-carboxamide] | < 23 | 4 | 10 | 6.4
CC(C)c1cnc2nn(-c3cc(NC(=O)c4ccco4)ccc3F)cc2c1 [Compound 196, N-{4-fluoro-3-[5-(propan-2-yl)-2H-pyrazolo[3,4-b]pyridin-2-yl]phenyl}furan-2-carboxamide] | < 23 | 12 | 76 | 27000
O=C(Nc1ccc(F)c(-n2cc3cc(N4CC5CCC4CO5)cnc3n2)c1)N1CC(F)C1 (stereo not drawn) [Compound 197, 3-fluoro-N-[4-fluoro-3-(5-{2-oxa-5-azabicyclo[2.2.2]octan-5-yl}-2H-pyrazolo[3,4-b]pyridin-2-yl)phenyl}azetidine-1-carboxamide] | 5 | 37 | 199 | 13
